# Structures can show the parent of a compound that is named as a salt.
# Test: Bloodwork: complete blood count, electrolytes, extended blood chemistry
# Assay type: in vivo, sheep
# Details: for Total Bili: ref 0.14-0.32; for Creatinine: ref 1-2.7; for Albumin: ref 2.4-3; for K+: ref 3.9-5.4; for Phos: ref 5-7.3; for Total Prot: ref 6-7.9
# Method: Indirect blood pressure, pulse recording, pain testing (mechanical stimulus device, cold and warm water baths see description in procedure) and weight were taken on days 1, 3, 7, 15, 22, 29, 36, and 43. Venous blood samples (15 ml drawn from the jugular vein with Vacutainer brand blood collection tubes) for complete blood count, electrolytes, and extended blood chemistry were drawn on days 1, 15, and 43 (mild procedure only light hand restraint necessary).
smiles,measurement,setting,value
"Cc1ncc2n1-c1ccc(Cl)cc1C(c1ccccc1F)=NC2 [Midazolam, midazolam hydrochloride]",Glucose,"sheep #91, 15 mg/day, Day 1",77 mg/dL
same,Hct,"sheep #91, 15 mg/day, Day 1",29.2%
same,Hgb,"sheep #91, 15 mg/day, Day 1",9.84 g/dL
same,MCH,"sheep #91, 15 mg/day, Day 1",10.7 pg
same,MCHC,"sheep #91, 15 mg/day, Day 1",33.7 g/dL
same,MCV,"sheep #91, 15 mg/day, Day 1",31.8 fL
same,Na+,"sheep #91, 15 mg/day, Day 1",149 mEq/l
same,Platlet Count,"sheep #91, 15 mg/day, Day 1",996000 µL⁻¹
same,RBC,"sheep #91, 15 mg/day, Day 1",9.18e+06 µL⁻¹
same,WBC,"sheep #91, 15 mg/day, Day 1",7090 µL⁻¹
same,Total Bili,"sheep #91, 15 mg/day, Day 1",0.1 mg/dL
same,Creatinine,"sheep #91, 15 mg/day, Day 1",1.6 mg/dL
same,Albumin,"sheep #91, 15 mg/day, Day 1",3.3 g/dL
same,K+,"sheep #91, 15 mg/day, Day 1",4.9 mEq/l
same,Phos,"sheep #91, 15 mg/day, Day 1",6.2 mg/dL
same,Total Prot,"sheep #91, 15 mg/day, Day 1",6.1 g/dL
same,ALT,"sheep #91, 15 mg/day, Day 15",10 U/L
same,AST,"sheep #91, 15 mg/day, Day 15",50 U/L
same,Alk Phos,"sheep #91, 15 mg/day, Day 15",162 U/L
same,BUN,"sheep #91, 15 mg/day, Day 15",13 mg/dL
same,CPK,"sheep #91, 15 mg/day, Day 15",56 U/L
same,Cholesterol,"sheep #91, 15 mg/day, Day 15",56 mg/dL
same,Differential Count: Eosin,"sheep #91, 15 mg/day, Day 15",12%
same,Differential Count: Lymph,"sheep #91, 15 mg/day, Day 15",44%
same,Differential Count: Seg,"sheep #91, 15 mg/day, Day 15",44%
same,Gamma GT,"sheep #91, 15 mg/day, Day 15",60 U/L
same,Glucose,"sheep #91, 15 mg/day, Day 15",83 mg/dL
same,Hct,"sheep #91, 15 mg/day, Day 15",31.8%
same,Hgb,"sheep #91, 15 mg/day, Day 15",10.8 g/dL
same,MCH,"sheep #91, 15 mg/day, Day 15",10.8 pg
same,MCHC,"sheep #91, 15 mg/day, Day 15",34.0 g/dL
same,MCV,"sheep #91, 15 mg/day, Day 15",31.8 fL
same,Na+,"sheep #91, 15 mg/day, Day 15",148 mEq/l
same,Platlet Count,"sheep #91, 15 mg/day, Day 15",848000 µL⁻¹
same,RBC,"sheep #91, 15 mg/day, Day 15",1e+07 µL⁻¹
same,WBC,"sheep #91, 15 mg/day, Day 15",5130 µL⁻¹
same,Total Bili,"sheep #91, 15 mg/day, Day 15",0.0 mg/dL
same,Creatinine,"sheep #91, 15 mg/day, Day 15",1.3 mg/dL
same,Albumin,"sheep #91, 15 mg/day, Day 15",3.3 g/dL
same,K+,"sheep #91, 15 mg/day, Day 15",4.4 mEq/l
same,Phos,"sheep #91, 15 mg/day, Day 15",6.1 mg/dL
same,Total Prot,"sheep #91, 15 mg/day, Day 15",6.2 g/dL
same,ALT,"sheep #91, 15 mg/day, Day 43",9 U/L
same,AST,"sheep #91, 15 mg/day, Day 43",63 U/L
same,Alk Phos,"sheep #91, 15 mg/day, Day 43",174 U/L
same,BUN,"sheep #91, 15 mg/day, Day 43",14 mg/dL
same,CPK,"sheep #91, 15 mg/day, Day 43",54 U/L
same,Cholesterol,"sheep #91, 15 mg/day, Day 43",66 mg/dL
same,Differential Count: Eosin,"sheep #91, 15 mg/day, Day 43",5%
same,Differential Count: Lymph,"sheep #91, 15 mg/day, Day 43",41%
same,Differential Count: Mono,"sheep #91, 15 mg/day, Day 43",2%
same,Differential Count: Seg,"sheep #91, 15 mg/day, Day 43",52%
same,Gamma GT,"sheep #91, 15 mg/day, Day 43",58 U/L
same,Glucose,"sheep #91, 15 mg/day, Day 43",81 mg/dL
same,Hct,"sheep #91, 15 mg/day, Day 43",36.3%
same,Hgb,"sheep #91, 15 mg/day, Day 43",12.2 g/dL
same,MCH,"sheep #91, 15 mg/day, Day 43",10.4 pg
same,MCHC,"sheep #91, 15 mg/day, Day 43",33.6 g/dL
same,MCV,"sheep #91, 15 mg/day, Day 43",30.9 fL
same,Na+,"sheep #91, 15 mg/day, Day 43",147 mEq/l
same,Platlet Count,"sheep #91, 15 mg/day, Day 43",805000 µL⁻¹
same,RBC,"sheep #91, 15 mg/day, Day 43",1.18e+07 µL⁻¹
same,WBC,"sheep #91, 15 mg/day, Day 43",5330 µL⁻¹
same,Total Bili,"sheep #91, 15 mg/day, Day 43",0.1 mg/dL
same,Creatinine,"sheep #91, 15 mg/day, Day 43",1.5 mg/dL
same,Albumin,"sheep #91, 15 mg/day, Day 43",3.6 g/dL
same,K+,"sheep #91, 15 mg/day, Day 43",4.6 mEq/l
same,Phos,"sheep #91, 15 mg/day, Day 43",7.3 mg/dL
same,Total Prot,"sheep #91, 15 mg/day, Day 43",6.4 g/dL
same,ALT,"sheep #457, 15 mg/day, Day 1",10 U/L
same,AST,"sheep #457, 15 mg/day, Day 1",85 U/L
same,Alk Phos,"sheep #457, 15 mg/day, Day 1",43 U/L
same,BUN,"sheep #457, 15 mg/day, Day 1",14 mg/dL
same,CPK,"sheep #457, 15 mg/day, Day 1",122 U/L
same,Cholesterol,"sheep #457, 15 mg/day, Day 1",59 mg/dL
same,Differential Count: Eosin,"sheep #457, 15 mg/day, Day 1",1%
same,Differential Count: Lymph,"sheep #457, 15 mg/day, Day 1",26%
same,Differential Count: Seg,"sheep #457, 15 mg/day, Day 1",73%
same,Gamma GT,"sheep #457, 15 mg/day, Day 1",59 U/L
same,Glucose,"sheep #457, 15 mg/day, Day 1",91 mg/dL
same,Hct,"sheep #457, 15 mg/day, Day 1",34.4%
same,Hgb,"sheep #457, 15 mg/day, Day 1",10.5 g/dL
same,MCH,"sheep #457, 15 mg/day, Day 1",10.2 pg
same,MCHC,"sheep #457, 15 mg/day, Day 1",30.5 g/dL
same,MCV,"sheep #457, 15 mg/day, Day 1",33.4 fL
same,Na+,"sheep #457, 15 mg/day, Day 1",147 mEq/l
same,Platlet Count,"sheep #457, 15 mg/day, Day 1",276000 µL⁻¹
same,RBC,"sheep #457, 15 mg/day, Day 1",8.68e+06 µL⁻¹
same,WBC,"sheep #457, 15 mg/day, Day 1",11900 µL⁻¹
same,Total Bili,"sheep #457, 15 mg/day, Day 1",0.1 mg/dL
same,Creatinine,"sheep #457, 15 mg/day, Day 1",1.1 mg/dL
same,Albumin,"sheep #457, 15 mg/day, Day 1",2.8 g/dL
same,K+,"sheep #457, 15 mg/day, Day 1",4.4 mEq/l
same,Phos,"sheep #457, 15 mg/day, Day 1",6.2 mg/dL
same,Total Prot,"sheep #457, 15 mg/day, Day 1",5.0 g/dL
same,ALT,"sheep #457, 15 mg/day, Day 15",14 U/L
same,AST,"sheep #457, 15 mg/day, Day 15",55 U/L
same,Alk Phos,"sheep #457, 15 mg/day, Day 15",93 U/L
same,BUN,"sheep #457, 15 mg/day, Day 15",20 mg/dL
same,CPK,"sheep #457, 15 mg/day, Day 15",73 U/L
same,Cholesterol,"sheep #457, 15 mg/day, Day 15",65 mg/dL
same,Differential Count: Lymph,"sheep #457, 15 mg/day, Day 15",71%
same,Differential Count: Mono,"sheep #457, 15 mg/day, Day 15",3%
same,Differential Count: Seg,"sheep #457, 15 mg/day, Day 15",24%
same,Gamma GT,"sheep #457, 15 mg/day, Day 15",72 U/L
same,Glucose,"sheep #457, 15 mg/day, Day 15",60 mg/dL
same,Hct,"sheep #457, 15 mg/day, Day 15",35.4%
same,Hgb,"sheep #457, 15 mg/day, Day 15",10.9 g/dL
same,MCH,"sheep #457, 15 mg/day, Day 15",10.6 pg
same,MCHC,"sheep #457, 15 mg/day, Day 15",30.8 g/dL
same,MCV,"sheep #457, 15 mg/day, Day 15",34.4 fL
same,Na+,"sheep #457, 15 mg/day, Day 15",150 mEq/l
same,Platlet Count,"sheep #457, 15 mg/day, Day 15",45000 µL⁻¹
same,RBC,"sheep #457, 15 mg/day, Day 15",8.72e+06 µL⁻¹
same,WBC,"sheep #457, 15 mg/day, Day 15",15400 µL⁻¹
same,Total Bili,"sheep #457, 15 mg/day, Day 15",0.1 mg/dL
same,Creatinine,"sheep #457, 15 mg/day, Day 15",1.1 mg/dL
same,Albumin,"sheep #457, 15 mg/day, Day 15",3.3 g/dL
same,K+,"sheep #457, 15 mg/day, Day 15",4.4 mEq/l
same,Phos,"sheep #457, 15 mg/day, Day 15",4.7 mg/dL
same,Total Prot,"sheep #457, 15 mg/day, Day 15",5.9 g/dL
same,ALT,"sheep #457, 15 mg/day, Day 43",12 U/L
same,AST,"sheep #457, 15 mg/day, Day 43",69 U/L
same,Alk Phos,"sheep #457, 15 mg/day, Day 43",105 U/L
same,BUN,"sheep #457, 15 mg/day, Day 43",15 mg/dL
same,CPK,"sheep #457, 15 mg/day, Day 43",51 U/L
same,Cholesterol,"sheep #457, 15 mg/day, Day 43",88 mg/dL
same,Differential Count: Eosin,"sheep #457, 15 mg/day, Day 43",7%
same,Differential Count: Lymph,"sheep #457, 15 mg/day, Day 43",68%
same,Differential Count: Mono,"sheep #457, 15 mg/day, Day 43",2%
same,Differential Count: Seg,"sheep #457, 15 mg/day, Day 43",23%
same,Gamma GT,"sheep #457, 15 mg/day, Day 43",61 U/L
same,Glucose,"sheep #457, 15 mg/day, Day 43",67 mg/dL
same,Hct,"sheep #457, 15 mg/day, Day 43",40.4%
same,Hgb,"sheep #457, 15 mg/day, Day 43",12.6 g/dL
same,MCH,"sheep #457, 15 mg/day, Day 43",11.5 pg
same,MCHC,"sheep #457, 15 mg/day, Day 43",31.2 g/dL
same,MCV,"sheep #457, 15 mg/day, Day 43",33.7 fL
same,Na+,"sheep #457, 15 mg/day, Day 43",145 mEq/l
same,RBC,"sheep #457, 15 mg/day, Day 43",1.098e+07 µL⁻¹
same,WBC,"sheep #457, 15 mg/day, Day 43",11200 µL⁻¹
same,Total Bili,"sheep #457, 15 mg/day, Day 43",0.1 mg/dL
same,Creatinine,"sheep #457, 15 mg/day, Day 43",1.4 mg/dL
same,Albumin,"sheep #457, 15 mg/day, Day 43",3.3 g/dL
same,K+,"sheep #457, 15 mg/day, Day 43",4.9 mEq/l
same,Phos,"sheep #457, 15 mg/day, Day 43",5.9 mg/dL
same,Total Prot,"sheep #457, 15 mg/day, Day 43",5.7 g/dL
same,ALT,"sheep #473, 3 mg/day, Day 1",22 U/L
